The target of experiment [1] is T1, strychnine insensitive glycine binding site located on the NMDA receptor complex (Rattus norvegicus, UniProt P35439).
T1 construct: from tissue
Nature of the experiment: biochemical.

A further experiment has as its system NMDA induced convulsions. As to the kind of experiment: inhibition of NMDA induced convulsions in the mouse (procedure of Chiamulera C et al.). In kind it is in vivo. From the text: In this test the ability of the compound to inhibit the generalized seizures induced by an intracerebroventricular injection of NMDA in mice was examined at a number of dose levels. […] This expressed as mg/kg is referred to as the ED50 value.

[2] abbreviates: mouse, intravenous, NMDA given intracerebroventricularly, read-out: ED50 (dose required to protect 50% of the animals from the convulsive action of NMDA), iv.
Setting [3] is: mouse, oral, NMDA given intracerebroventricularly, read-out: ED50 (dose required to protect 50% of the animals from the convulsive action of NMDA), po.

Structures can show the parent of a compound that is named as a salt. Where two headings read alike, the source gives them in different places.

As usually defined, the Ki is a dissociation constant, usually derived from enzyme kinetics or from competition with a known ligand. The low end stands for a stronger hold on the target, the high end for a looser hold on the target. Compound `O=C(/C=C/c1c(C(=O)[O-])[nH]c2cc(Cl)cc(Cl)c12)NC12CC3CC(CC(C3)C1)C2.[Na+]` [sodium salt] gave a Ki in experiment [1] of 0.0631 µM.

`O=C(/C=C/c1c(C(=O)O)[nH]c2cc(Cl)cc(Cl)c12)NC1C2CC3CC(C2)CC1C3` (stereo not drawn) [Example 17, (E) 3-[2'-(2"-adamantylaminocarbonyl)ethenyl]-4,6-dichloroindole-2-carboxylic acid sodium salt]: in experiment [1], the inhibition constant Ki was 0.0251 µM.

A word on the ED50: it is the dose at which the effect has come halfway, by size or by number of responders. Take `O=C(/C=C/c1c(C(=O)O)[nH]c2cc(Cl)cc(Cl)c12)NC12CC3CC(CC1C3)C2` [Example 14, (E) 3-[2'-(noradamantyl-3"-aminocarbonyl)ethenyl]-4,6-dichloroindole-2-carboxylic acid sodium salt]: the figures for the median effective dose (ED50) in the experiment on NMDA induced convulsions (setting [2]) and in the experiment with NMDA induced convulsions (setting [3]) were 0.05 mg/kg and 6 mg/kg, respectively. For the same compound, in experiment [1], the Ki is 0.0263 µM.

With `O=C(/C=C/c1c(C(=O)O)[nH]c2cc(Cl)cc(Cl)c12)N[C@H]1C[C@H]2CC[C@@H]1C2` (relative stereo) [Example 11, (E) 3-[2-endo-2-norbornylcarbamoyl)ethenyl]4,6-dichloroindole-2-carboxylic acid sodium salt], the inhibition constant (Ki) in experiment [1] is 0.01 µM.

Turning to `O=C(/C=C/c1c(C(=O)O)[nH]c2cc(Cl)cc(Cl)c12)N[C@@H]1C[C@H]2CC[C@@H]1C2` (relative stereo) [Example 10b, (E)-3-(2'-exo-2-norbornylcarbamoyl)ethenyl)-4,6-dichloroindole-2-carboxylicacid sodium salt], the ED50 in the experiment with NMDA induced convulsions (setting [2]) stood at 0.01 mg/kg; in the experiment on NMDA induced convulsions (setting [3]), 11.1 mg/kg. Moreover, the affinity in experiment [1] corresponds to a Ki of 0.02 µM.

`CC1(C)[C@@H]2CC[C@@]1(C)[C@@H](NC(=O)/C=C/c1c(C(=O)O)[nH]c3cc(Cl)cc(Cl)c13)C2` [Example 16, (E) 3-[2'-(1"-R-bornyl-2"-aminocarbonyl)ethenyl]-4,6-dichloroindole-2 carboxylic acid sodium salt] had a Ki in experiment [1] of 0.0398 µM.

`O=C(/C=C/c1c(C(=O)[O-])[nH]c2cc(Cl)cc(Cl)c12)NC12CC3CC(CC(C3)C1)C2.[Na+]`: the ED50 in the experiment with NMDA induced convulsions (Mus musculus, iv, read-out: ED50 (dose required to protect 50% of the animals from the convulsive action of NMDA), iv) stood at 0.02 mg/kg; in the experiment on NMDA induced convulsions (Mus musculus, po, read-out: ED50 (dose required to protect 50% of the animals from the convulsive action of NMDA), po), 5.47 mg/kg.

For the origin of these results see patent publication US5686461A, “Indole derivatives” (Glaxo Wellcome S.p.A., priority 1993, dated 1997).
